From the supplement of paper PMC10883282

Legend:
Experiment in all cases: relative viability vs DMSO control (72 h) (fraction); higher = more viable cells
G401 = test system: G401
Procedure, shortened: (§1)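 ATPLite readings, expressed as percent growth and averaged over up to triplicate wells, provided relative viability. Before reading, sarcoma cell lines seeded in 384-well plates to reach 80–90% confluence received 2.5 µl of serially diluted compound after 24 h, from source plates of 10 mM to 0.0002 mM. Plates were held 72 h at 37 °C, 5% CO2, with 0.1% DMSO as vehicle and a 5 µM positive control. The data were rescaled to 1 for full and 0 for none.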

A204 = test system: A204
Procedure, shortened: as §1

SW1353 = test system: SW1353
Procedure, shortened: as §1

SK-ES-1 = test system: SK-ES-1
Procedure, shortened: as §1

HT1080 = test system: HT1080
Procedure, shortened: as §1

SW684 = test system: SW684
Procedure, shortened: as §1

SW982 = test system: SW982
Procedure, shortened: as §1

SW872 = test system: SW872
Procedure, shortened: as §1

RD-ES = test system: RD-ES
Procedure, shortened: as §1

KHOS-240S = test system: KHOS-240S
Procedure, shortened: as §1

KHOS-NP = test system: KHOS-NP
Procedure, shortened: as §1

SYO-1 = test system: SYO-1
Procedure, shortened: as §1

CC(=O)c1c(C)c2cnc(Nc3ccc(N4CCNCC4)cn3)nc2n(C2CCCC2)c1=O [Palbociclib]
Details	relative viability
A204, 0.00017 µM	1.05
A204, 0.00051 µM	1.07
A204, 0.00152 µM	1.07
A204, 0.00457 µM	1.08
A204, 0.01372 µM	1.03
A204, 0.04115 µM	0.987
A204, 0.1235 µM	0.808
A204, 0.3704 µM	0.777
A204, 1.111 µM	0.649
A204, 3.333 µM	0.556
A204, 10 µM	0.39
G401, 0.00017 µM	1.04
G401, 0.00051 µM	1.03
G401, 0.00152 µM	1.016
G401, 0.00457 µM	0.989
G401, 0.01372 µM	0.962
G401, 0.04115 µM	0.938
G401, 0.1235 µM	0.882
G401, 0.3704 µM	0.856
G401, 1.111 µM	0.833
G401, 3.333 µM	0.742
G401, 10 µM	0.293
HT1080, 0.00017 µM	1.09
HT1080, 0.00051 µM	1.1
HT1080, 0.00152 µM	1.11
HT1080, 0.00457 µM	1.08
HT1080, 0.01372 µM	1.13
HT1080, 0.04115 µM	1.12
HT1080, 0.1235 µM	1.16
HT1080, 0.3704 µM	1.16
HT1080, 1.111 µM	1.06
HT1080, 3.333 µM	0.973
HT1080, 10 µM	0.44
KHOS-240S, 0.00017 µM	1.07
KHOS-240S, 0.00051 µM	1.07
KHOS-240S, 0.00152 µM	1.08
KHOS-240S, 0.00457 µM	1.07
KHOS-240S, 0.01372 µM	1.07
KHOS-240S, 0.04115 µM	1.01
KHOS-240S, 0.1235 µM	0.945
KHOS-240S, 0.3704 µM	0.843
KHOS-240S, 1.111 µM	0.734
KHOS-240S, 3.333 µM	0.681
KHOS-240S, 10 µM	0.607
KHOS-NP, 0.00017 µM	1.12
KHOS-NP, 0.00051 µM	1.11
KHOS-NP, 0.00152 µM	1.124
KHOS-NP, 0.00457 µM	1.1
KHOS-NP, 0.01372 µM	1.13
KHOS-NP, 0.04115 µM	1.12
KHOS-NP, 0.1235 µM	1.11
KHOS-NP, 0.3704 µM	1.1
KHOS-NP, 1.111 µM	1.07
KHOS-NP, 3.333 µM	0.902
KHOS-NP, 10 µM	0.742
RD-ES, 0.00017 µM	0.959
RD-ES, 0.00051 µM	0.9884
RD-ES, 0.00152 µM	0.98
RD-ES, 0.00457 µM	0.931
RD-ES, 0.01372 µM	0.917
RD-ES, 0.04115 µM	0.835
RD-ES, 0.1235 µM	0.735
RD-ES, 0.3704 µM	0.652
RD-ES, 1.111 µM	0.603
RD-ES, 3.333 µM	0.563
RD-ES, 10 µM	0.18
SK-ES-1, 0.00017 µM	1
SK-ES-1, 0.00051 µM	1.07
SK-ES-1, 0.00152 µM	1.03
SK-ES-1, 0.00457 µM	1.02
SK-ES-1, 0.01372 µM	0.9868
SK-ES-1, 0.04115 µM	0.865
SK-ES-1, 0.1235 µM	0.674
SK-ES-1, 0.3704 µM	0.512
SK-ES-1, 1.111 µM	0.467
SK-ES-1, 3.333 µM	0.407
SK-ES-1, 10 µM	0.241
SW684, 0.00017 µM	1.19
SW684, 0.00051 µM	1.2
SW684, 0.00152 µM	1.24
SW684, 0.00457 µM	1.241
SW684, 0.01372 µM	1.28
SW684, 0.04115 µM	1.21
SW684, 0.1235 µM	1.18
SW684, 0.3704 µM	1.11
SW684, 1.111 µM	1.05
SW684, 3.333 µM	0.933
SW684, 10 µM	0.7226
SW872, 0.00017 µM	1.11
SW872, 0.00051 µM	1.1
SW872, 0.00152 µM	1.07
SW872, 0.00457 µM	1.09
SW872, 0.01372 µM	1.07
SW872, 0.04115 µM	1.03
SW872, 0.1235 µM	0.968
SW872, 0.3704 µM	0.884
SW872, 1.111 µM	0.83
SW872, 3.333 µM	0.78
SW872, 10 µM	0.726
SW982, 0.00017 µM	1.03
SW982, 0.00051 µM	1.08
SW982, 0.00152 µM	1.06
SW982, 0.00457 µM	1.05
SW982, 0.01372 µM	1.01
SW982, 0.04115 µM	0.936
SW982, 0.1235 µM	0.845
SW982, 0.3704 µM	0.737
SW982, 1.111 µM	0.6424
SW982, 3.333 µM	0.487
SW982, 10 µM	0.222
SW1353, 0.00017 µM	1.05
SW1353, 0.00051 µM	1.06
SW1353, 0.00152 µM	1.05
SW1353, 0.00457 µM	1.04
SW1353, 0.01372 µM	1.01
SW1353, 0.04115 µM	0.955
SW1353, 0.1235 µM	0.9442
SW1353, 0.3704 µM	0.9
SW1353, 1.111 µM	0.859
SW1353, 3.333 µM	0.87
SW1353, 10 µM	0.425
SYO-1, 0.00017 µM	1.01
SYO-1, 0.00051 µM	1
SYO-1, 0.00152 µM	1.01
SYO-1, 0.00457 µM	0.9555
SYO-1, 0.01372 µM	0.903
SYO-1, 0.04115 µM	0.8
SYO-1, 0.1235 µM	0.702
SYO-1, 0.3704 µM	0.649
SYO-1, 1.111 µM	0.621
SYO-1, 3.333 µM	0.523
SYO-1, 10 µM	-0.000667

CN(C)CCCOc1ccc(-c2ccc3ncc4c(c3c2)n(C2CCOCC2)c(=O)n4C)cn1 [AZD-0156]
Details	relative viability
A204, 0.00017 µM	1.08
A204, 0.00051 µM	1.1
A204, 0.00152 µM	1.07
A204, 0.00457 µM	1.1
A204, 0.01372 µM	1.04
A204, 0.04115 µM	1.01
A204, 0.1235 µM	0.919
A204, 0.3704 µM	0.84
A204, 1.111 µM	0.704
A204, 3.333 µM	0.766
A204, 10 µM	0.628
G401, 0.00017 µM	1.08
G401, 0.00051 µM	1.06
G401, 0.00152 µM	1.06
G401, 0.00457 µM	1.05
G401, 0.01372 µM	1.06
G401, 0.04115 µM	1.05
G401, 0.1235 µM	1.03
G401, 0.3704 µM	1.01
G401, 1.111 µM	0.968
G401, 3.333 µM	1.01
G401, 10 µM	0.9515
HT1080, 0.00017 µM	1.04
HT1080, 0.00051 µM	1.1
HT1080, 0.00152 µM	1.091
HT1080, 0.00457 µM	1.12
HT1080, 0.01372 µM	1.09
HT1080, 0.04115 µM	1.09
HT1080, 0.1235 µM	1.07
HT1080, 0.3704 µM	1.06
HT1080, 1.111 µM	1.09
HT1080, 3.333 µM	1.11
HT1080, 10 µM	1.026
KHOS-240S, 0.00017 µM	1.08
KHOS-240S, 0.00051 µM	1.1
KHOS-240S, 0.00152 µM	1.1
KHOS-240S, 0.00457 µM	1.08
KHOS-240S, 0.01372 µM	1.06
KHOS-240S, 0.04115 µM	1.03
KHOS-240S, 0.1235 µM	1.04
KHOS-240S, 0.3704 µM	0.99
KHOS-240S, 1.111 µM	0.865
KHOS-240S, 3.333 µM	0.814
KHOS-240S, 10 µM	0.587
KHOS-NP, 0.00017 µM	1.1
KHOS-NP, 0.00051 µM	1.107
KHOS-NP, 0.00152 µM	1.09
KHOS-NP, 0.00457 µM	1.1
KHOS-NP, 0.01372 µM	1.09
KHOS-NP, 0.04115 µM	1.088
KHOS-NP, 0.1235 µM	1.11
KHOS-NP, 0.3704 µM	1.09
KHOS-NP, 1.111 µM	1.03
KHOS-NP, 3.333 µM	1.02
KHOS-NP, 10 µM	0.764
RD-ES, 0.00017 µM	0.944
RD-ES, 0.00051 µM	1.01
RD-ES, 0.00152 µM	1.03
RD-ES, 0.00457 µM	1
RD-ES, 0.01372 µM	0.861
RD-ES, 0.04115 µM	0.839
RD-ES, 0.1235 µM	0.7218
RD-ES, 0.3704 µM	0.69
RD-ES, 1.111 µM	0.616
RD-ES, 3.333 µM	0.548
RD-ES, 10 µM	0.36
SK-ES-1, 0.00017 µM	1.07
SK-ES-1, 0.00051 µM	1.06
SK-ES-1, 0.00152 µM	0.963
SK-ES-1, 0.00457 µM	1
SK-ES-1, 0.01372 µM	0.828
SK-ES-1, 0.04115 µM	0.815
SK-ES-1, 0.1235 µM	0.734
SK-ES-1, 0.3704 µM	0.643
SK-ES-1, 1.111 µM	0.59
SK-ES-1, 3.333 µM	0.626
SK-ES-1, 10 µM	0.522
SW684, 0.00017 µM	1.16
SW684, 0.00051 µM	1.17
SW684, 0.00152 µM	1.17
SW684, 0.00457 µM	1.19
SW684, 0.01372 µM	1.13
SW684, 0.04115 µM	1.16
SW684, 0.1235 µM	0.994
SW684, 0.3704 µM	0.963
SW684, 1.111 µM	0.835
SW684, 3.333 µM	0.918
SW684, 10 µM	0.788
SW872, 0.00017 µM	1.06
SW872, 0.00051 µM	1.05
SW872, 0.00152 µM	1.06
SW872, 0.00457 µM	1.03
SW872, 0.01372 µM	0.941
SW872, 0.04115 µM	0.892
SW872, 0.1235 µM	0.808
SW872, 0.3704 µM	0.654
SW872, 1.111 µM	0.476
SW872, 3.333 µM	0.398
SW872, 10 µM	0.26
SW982, 0.00017 µM	1.05
SW982, 0.00051 µM	1.08
SW982, 0.00152 µM	1.06
SW982, 0.00457 µM	1.05
SW982, 0.01372 µM	1.03
SW982, 0.04115 µM	0.964
SW982, 0.1235 µM	0.828
SW982, 0.3704 µM	0.619
SW982, 1.111 µM	0.484
SW982, 3.333 µM	0.349
SW982, 10 µM	0.218
SW1353, 0.00017 µM	1.1
SW1353, 0.00051 µM	1.07
SW1353, 0.00152 µM	1.05
SW1353, 0.00457 µM	1.07
SW1353, 0.01372 µM	1.01
SW1353, 0.04115 µM	1.02
SW1353, 0.1235 µM	0.97
SW1353, 0.3704 µM	0.951
SW1353, 1.111 µM	0.883
SW1353, 3.333 µM	0.949
SW1353, 10 µM	0.865
SYO-1, 0.00017 µM	1
SYO-1, 0.00051 µM	1.01
SYO-1, 0.00152 µM	0.983
SYO-1, 0.00457 µM	0.949
SYO-1, 0.01372 µM	0.869
SYO-1, 0.04115 µM	0.891
SYO-1, 0.1235 µM	0.737
SYO-1, 0.3704 µM	0.701
SYO-1, 1.111 µM	0.534
SYO-1, 3.333 µM	0.526
SYO-1, 10 µM	0.259
